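Tested at 5 concentrations; 48 h exposure; 96-well plates; endpoints linearly interpolated, else capped at highest concentration. TGI marks complete inhibition of growth.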
What was measured:
Assay in all cases: NCI anticancer screen, dose series, 48 h
[1] = tested on: T-47D breast
[2] = tested on: HS 578T breast
[3] = tested on: COLO 205 colon
[4] = tested on: MCF7 breast
[5] = tested on: HT29 colon
[6] = tested on: UO-31 renal
[7] = tested on: DU-145 prostate
[8] = tested on: SNB-19 CNS
[9] = tested on: MDA-MB-435
[10] = tested on: PC-3 prostate
[11] = tested on: MOLT-4 leukemia
[12] = tested on: HL-60(TB) leukemia
[13] = tested on: KM12 colon
[14] = tested on: RXF 393 renal
[15] = tested on: HCT-15 colon
[16] = tested on: BT-549 breast
[17] = tested on: NCI-H226 lung
[18] = tested on: A498 renal
[19] = tested on: SK-OV-3 ovarian
[20] = tested on: SF-295 CNS
[21] = tested on: NCI-H460 lung
[22] = tested on: SK-MEL-28 melanoma
[23] = tested on: MALME-3M melanoma
[24] = tested on: HOP-62 NSCLC
[25] = tested on: SK-MEL-2 melanoma
[26] = tested on: UACC-62 melanoma
[27] = tested on: SR leukemia
[28] = tested on: CCRF-CEM leukemia
[29] = tested on: K-562 leukemia
[30] = tested on: HCT-116 colon
[31] = tested on: MDA-MB-231 breast
[32] = tested on: M14 melanoma
[33] = tested on: OVCAR-3 ovarian
[34] = tested on: SK-MEL-5 melanoma
[35] = tested on: NCI/ADR-RES ovarian
[36] = tested on: RPMI-8226 leukemia
[37] = tested on: MDA-N
[38] = tested on: HCC-2998 colon
[39] = tested on: SNB-75 CNS
[40] = tested on: OVCAR-5 ovarian
[41] = tested on: NCI-H522 lung
[42] = tested on: CAKI-1 renal
[43] = tested on: IGROV1 ovarian
[44] = tested on: OVCAR-8 ovarian
[45] = tested on: U251 CNS
[46] = tested on: NCI-H23 lung
[47] = tested on: SN12C renal
[48] = tested on: LOX IMVI melanoma
[49] = tested on: OVCAR-4 ovarian
[50] = tested on: SW-620 colon
[51] = tested on: EKVX NSCLC
[52] = tested on: HOP-92 NSCLC
[53] = tested on: ACHN renal
[54] = tested on: TK-10 renal
[55] = tested on: UACC-257 melanoma
[56] = tested on: A549 NSCLC
[57] = tested on: 786-0 renal
[58] = tested on: SF-268 CNS
[59] = tested on: SF-539 CNS

`CN(C)C(=O)/N=C1\SC(=Nc2ccccc2)C(=Nc2ccccc2)N1c1ccc([N+](=O)[O-])cc1` gave a TGI [1] greater than 100 µM, a TGI [2] greater than 100 µM and a TGI [3] greater than 100 µM. It also gave a TGI [4] greater than 100 µM, a TGI [5] greater than 100 µM and a TGI [6] greater than 100 µM. It also gave a TGI [7] greater than 100 µM, a TGI [8] greater than 100 µM and a TGI [9] greater than 100 µM. The TGI [10] was greater than 100 µM, the TGI [11] was greater than 100 µM and the TGI [12] was greater than 100 µM. The TGI [13] was greater than 100 µM, the TGI [14] was greater than 100 µM and the TGI [15] was greater than 100 µM. The TGI [16] was greater than 100 µM, the TGI [17] was greater than 100 µM and the TGI [18] was greater than 100 µM. For the same compound, the TGI [19] was greater than 100 µM, the TGI [20] was greater than 100 µM and the TGI [21] was greater than 100 µM. For the same compound, the TGI [22] was greater than 100 µM, the TGI [23] was greater than 100 µM and the TGI [24] was greater than 100 µM. For the same compound, the TGI [25] was greater than 100 µM, the TGI [26] was greater than 100 µM and the TGI [27] was greater than 100 µM. It also gave a TGI [28] greater than 100 µM, a TGI [29] greater than 100 µM and a TGI [30] greater than 100 µM. The TGI [31] was greater than 100 µM, the TGI [32] was greater than 100 µM and the TGI [33] was greater than 100 µM. The TGI [34] was greater than 100 µM, the TGI [35] was greater than 100 µM and the TGI [36] was greater than 100 µM. It also gave a TGI [37] greater than 100 µM, a TGI [38] greater than 100 µM and a TGI [39] greater than 100 µM. For the same compound, the TGI [40] was greater than 100 µM, the TGI [41] was greater than 100 µM and the TGI [42] was greater than 100 µM. The TGI [43] was greater than 100 µM, the TGI [44] was greater than 100 µM and the TGI [45] was greater than 100 µM. The TGI [46] was greater than 100 µM and the TGI [47] was greater than 100 µM.

Compound `CC1=CC(O)CC(C)(C)C1/C=C/C(C)=C/C=C/C(C)=C/C=C/C=C(C)/C=C/C=C(C)/C=C/C1=C(C)CC(O)CC1(C)C` (stereo not drawn) has a TGI [1] of 44.7 µM, a TGI [2] greater than 100 µM and a TGI [3] of 38 µM. For the same compound, the TGI [4] was 77.7 µM, the TGI [48] was greater than 100 µM and the TGI [5] was 30.3 µM. The TGI [6] was greater than 100 µM, the TGI [7] was greater than 100 µM and the TGI [8] was greater than 100 µM. It also gave a TGI [9] of 33.9 µM, a TGI [10] of 62.6 µM and a TGI [11] greater than 100 µM. The TGI [12] was greater than 100 µM, the TGI [13] was greater than 100 µM and the TGI [14] was 33.2 µM. It also gave a TGI [15] of 34.4 µM, a TGI [16] of 33.1 µM and a TGI [49] of 66.9 µM. It also gave a TGI [17] of 41.4 µM, a TGI [19] greater than 100 µM and a TGI [20] of 58.4 µM. It also gave a TGI [50] of 34.8 µM, a TGI [51] greater than 100 µM and a TGI [21] greater than 100 µM. It also gave a TGI [22] of 31.4 µM, a TGI [52] of 41 µM and a TGI [23] of 29 µM. The TGI [53] was 31.1 µM, the TGI [25] was 68.8 µM and the TGI [26] was 29.8 µM. For the same compound, the TGI [54] was greater than 100 µM, the TGI [27] was greater than 100 µM and the TGI [28] was greater than 100 µM. It also gave a TGI [29] greater than 100 µM, a TGI [30] of 30 µM and a TGI [31] of 30.1 µM. It also gave a TGI [55] of 59.1 µM, a TGI [32] of 29.8 µM and a TGI [33] of 32.8 µM. It also gave a TGI [34] of 32.7 µM, a TGI [35] of 59.8 µM and a TGI [36] greater than 100 µM. For the same compound, the TGI [37] was 37.8 µM, the TGI [38] was greater than 100 µM and the TGI [39] was greater than 100 µM. The TGI [40] was 78.4 µM, the TGI [56] was greater than 100 µM and the TGI [41] was 30 µM. It also gave a TGI [42] of 51.4 µM, a TGI [43] of 66.3 µM and a TGI [44] of 39.5 µM. It also gave a TGI [57] of 36.7 µM and a TGI [46] of 56.9 µM.

Work on `O=C1c2c(Br)sc(Br)c2[C@H]2OC(=S)N[C@@H]12` yielded a TGI [1] of 44.2 µM, a TGI [2] greater than 52.7 µM and a TGI [3] of 5.58 µM. The TGI [4] was 23.2 µM, the TGI [48] was 10.9 µM and the TGI [5] was 4.05 µM. The TGI [6] was 3.34 µM, the TGI [7] was 26.9 µM and the TGI [8] was 30 µM. It also gave a TGI [9] of 8.65 µM, a TGI [10] of 14 µM and a TGI [11] of 5 µM. It also gave a TGI [13] of 38.8 µM, a TGI [14] of 8.8 µM and a TGI [15] of 3.76 µM. The TGI [16] was 23.8 µM, the TGI [49] was 13.3 µM and the TGI [17] was 33.5 µM. The TGI [18] was 32.5 µM, the TGI [19] was 29.9 µM and the TGI [20] was 30.1 µM. The TGI [50] was 5.84 µM, the TGI [51] was 11.4 µM and the TGI [21] was 34.2 µM. The TGI [22] was 7.94 µM, the TGI [58] was 12 µM and the TGI [52] was 27.3 µM. For the same compound, the TGI [23] was 10.4 µM, the TGI [53] was 11.1 µM and the TGI [24] was 30.7 µM. The TGI [25] was 29 µM, the TGI [26] was 24.1 µM and the TGI [54] was 35 µM. For the same compound, the TGI [27] was 5.19 µM, the TGI [29] was 6.35 µM and the TGI [30] was 7.6 µM. It also gave a TGI [59] of 31.2 µM, a TGI [31] of 25 µM and a TGI [55] of 17.1 µM. For the same compound, the TGI [32] was 4.1 µM, the TGI [33] was 7.26 µM and the TGI [34] was 23.8 µM. It also gave a TGI [35] of 31.6 µM, a TGI [36] of 40.3 µM and a TGI [37] of 16.9 µM. For the same compound, the TGI [38] was 22.4 µM, the TGI [39] was 31 µM and the TGI [40] was 32.4 µM. The TGI [56] was 37.5 µM, the TGI [41] was 3.4 µM and the TGI [42] was 7.81 µM. It also gave a TGI [43] of 23.9 µM, a TGI [44] of 12 µM and a TGI [45] of 7.08 µM. The TGI [57] was 27 µM, the TGI [46] was 15.1 µM and the TGI [47] was 8.7 µM.

`CC1CCc2sc3[nH]c(=S)n(C)c(=O)c3c2C1` (stereo not drawn) showed a TGI [1] greater than 100 µM, a TGI [2] greater than 100 µM and a TGI [3] greater than 100 µM. It also gave a TGI [4] greater than 100 µM, a TGI [48] greater than 100 µM and a TGI [5] greater than 100 µM. For the same compound, the TGI [6] was 33.6 µM, the TGI [7] was greater than 100 µM and the TGI [8] was greater than 100 µM. It also gave a TGI [9] greater than 100 µM, a TGI [10] of 72 µM and a TGI [11] greater than 100 µM. The TGI [12] was 26.2 µM, the TGI [13] was greater than 100 µM and the TGI [14] was greater than 100 µM. It also gave a TGI [15] greater than 100 µM, a TGI [16] greater than 100 µM and a TGI [49] greater than 100 µM. The TGI [17] was 87.9 µM, the TGI [19] was greater than 100 µM and the TGI [20] was greater than 100 µM. For the same compound, the TGI [50] was greater than 100 µM, the TGI [51] was 94.6 µM and the TGI [21] was greater than 100 µM. It also gave a TGI [22] greater than 100 µM, a TGI [58] greater than 100 µM and a TGI [52] of 44.5 µM. For the same compound, the TGI [23] was greater than 100 µM, the TGI [53] was greater than 100 µM and the TGI [24] was greater than 100 µM. It also gave a TGI [25] greater than 100 µM, a TGI [26] greater than 100 µM and a TGI [54] greater than 100 µM. For the same compound, the TGI [27] was greater than 100 µM, the TGI [29] was greater than 100 µM and the TGI [30] was greater than 100 µM. The TGI [31] was greater than 100 µM, the TGI [55] was greater than 100 µM and the TGI [32] was 99.6 µM. For the same compound, the TGI [33] was 62.4 µM, the TGI [34] was greater than 100 µM and the TGI [35] was greater than 100 µM. The TGI [36] was greater than 100 µM, the TGI [37] was greater than 100 µM and the TGI [38] was 82.5 µM. The TGI [39] was greater than 100 µM, the TGI [40] was greater than 100 µM and the TGI [56] was greater than 100 µM. The TGI [41] was 84.5 µM, the TGI [42] was greater than 100 µM and the TGI [43] was greater than 100 µM. For the same compound, the TGI [44] was greater than 100 µM, the TGI [45] was greater than 100 µM and the TGI [57] was greater than 100 µM. For the same compound, the TGI [46] was greater than 100 µM and the TGI [47] was greater than 100 µM.

Source: PubChem BioAssay (NCI)
